{"source": "patent US8580773B2", "about": "“Small-molecule inhibitors of the androgen receptor” (The Regents of the University of California, priority 2008, dated 2013)", "key": {"endogenous AR [1]": {"molecular_target": "T1, endogenous AR (Homo sapiens, UniProt P10275, T878A)", "T1 construct": "that each express endogenous AR; endogenous in cells; host or cells: LNCaP", "T1 sequence (P10275 whole entry T878A)": "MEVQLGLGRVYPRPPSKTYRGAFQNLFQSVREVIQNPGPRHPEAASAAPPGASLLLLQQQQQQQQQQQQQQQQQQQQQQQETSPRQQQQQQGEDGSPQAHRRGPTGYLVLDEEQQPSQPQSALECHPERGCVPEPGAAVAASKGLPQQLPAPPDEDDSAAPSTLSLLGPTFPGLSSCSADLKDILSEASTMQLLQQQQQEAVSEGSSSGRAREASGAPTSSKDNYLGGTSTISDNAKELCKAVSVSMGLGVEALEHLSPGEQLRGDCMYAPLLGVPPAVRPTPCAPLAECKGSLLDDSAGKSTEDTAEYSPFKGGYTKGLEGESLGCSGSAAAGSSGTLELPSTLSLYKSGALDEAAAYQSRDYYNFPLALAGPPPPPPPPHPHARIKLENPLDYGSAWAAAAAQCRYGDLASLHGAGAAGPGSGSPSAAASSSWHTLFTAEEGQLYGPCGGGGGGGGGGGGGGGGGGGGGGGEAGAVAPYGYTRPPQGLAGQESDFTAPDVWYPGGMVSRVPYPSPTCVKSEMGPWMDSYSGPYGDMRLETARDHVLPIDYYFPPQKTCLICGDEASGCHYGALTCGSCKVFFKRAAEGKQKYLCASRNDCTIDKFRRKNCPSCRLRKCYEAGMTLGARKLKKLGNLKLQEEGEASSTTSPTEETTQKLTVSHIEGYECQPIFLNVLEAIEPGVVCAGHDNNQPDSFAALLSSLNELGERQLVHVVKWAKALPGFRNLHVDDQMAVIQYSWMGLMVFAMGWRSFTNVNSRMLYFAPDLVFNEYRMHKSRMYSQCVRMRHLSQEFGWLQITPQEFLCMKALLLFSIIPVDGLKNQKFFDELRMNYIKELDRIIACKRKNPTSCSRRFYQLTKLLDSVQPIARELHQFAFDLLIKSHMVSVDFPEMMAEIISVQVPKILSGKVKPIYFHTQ", "assay_type": "cell-based", "settings": "LNCaP, 3 nM DHT plus 1 μM BIC, 100 nM PP or 100 nM HH", "experimental": "(§1) LAPC4 and LNCaP cells were grown in the presence or absence of 3 nM DHT in charcoal-stripped media, with or without the inhibitors. RNA was harvested using an RNAeasy kit (Qiagen) and reverse transcribed (MMLV-RT, Invitrogen). Real-time PCR was carried out on a 7300 Real Time PCR System (Applied Biosystems) using SYBR green as the detecting dye and Rox as the reference dye. The androgen responsive genes kalikrein 3, or PSA (KLK3) [Cleutjens, K. B., et al., Two androgen response regions cooperate in steroid hormone regulated activity of the prostate-specific antigen promoter. J Biol Chem, 1996. 271(11): p. 6379-88; Nelson, P. S., et al., The program of androgen-responsive genes in neoplastic prostate epithelium. Proc Natl Acad Sci USA, 2002. 99(18): p. 11890-5), metalloproteinase 16 (MMP16) (Nelson, P. S., et al., The program of androgen-responsive genes in neoplastic prostate epithelium. Proc Natl Acad Sci USA, 2002. 99(18): p. 11890-5), transmembrane protease serine 2 (TMPRSS2) (Nelson, P. S., et al., The program of androgen-responsive genes in neoplastic prostate epithelium. Proc Natl Acad Sci USA, 2002. 99(18): p. 11890-5; […] Vaarala, M. H., et al., Expression of transmembrane serine protease TMPRSS2 in mouse and human tissues. J Pathol, 2001. 193(1): p. 134-40), FK506-binding immunophilin 51 (FKBP51) (Nelson, P. S., et al., The program of androgen-responsive genes in neoplastic prostate epithelium. Proc Natl Acad Sci USA, 2002. 99(18): p. 11890-5; Amler, L. C., et al., Dysregulated expression of androgen-responsive and nonresponsive genes in the androgen-independent prostate cancer xenograft model CWR22-R1. Cancer Res, 2000. 60(21): p. 6134-41; Velasco, A. M., et al., Identification and validation of novel androgen-regulated genes in prostate cancer. Endocrinology, 2004. 145(8): p. 3913-24; Magee, J. A., et al., Direct, androgen receptor-mediated regulation of the FKBP5 gene via a distal enhancer element. Endocrinology, 2006. 147(1): p. 590-8), G-protein coupled receptor RDC1 homolog, or chemokine orphan receptor 1 (RDC-1) (Nelson, P. S., et al., The program of androgen-responsive genes in neoplastic prostate epithelium. Proc Natl Acad Sci USA, 2002. 99(18): p. 11890-5), NK homeobox family member 3 (NRx3.1) (Nelson, P. S., et al., The program of androgen-responsive genes in neoplastic prostate epithelium. Proc Natl Acad Sci USA, 2002. 99(18): p. 11890-5; Bieberich, C. J., et al., Prostate-specific and androgen-dependent expression of a novel homeobox gene. J Biol Chem, 1996. 271(50): p. 31779-82; […]) were all normalized to the transcription of the housekeeping ribosomal gene (RPL19). All samples were done in triplicate and separately normalized."}, "endogenous AR [2]": {"molecular_target": "T2, endogenous AR (Homo sapiens, UniProt P10275)", "T2 construct": "that each express endogenous AR; endogenous in cells; host or cells: LAPC4", "T2 sequence (P10275 1-920)": "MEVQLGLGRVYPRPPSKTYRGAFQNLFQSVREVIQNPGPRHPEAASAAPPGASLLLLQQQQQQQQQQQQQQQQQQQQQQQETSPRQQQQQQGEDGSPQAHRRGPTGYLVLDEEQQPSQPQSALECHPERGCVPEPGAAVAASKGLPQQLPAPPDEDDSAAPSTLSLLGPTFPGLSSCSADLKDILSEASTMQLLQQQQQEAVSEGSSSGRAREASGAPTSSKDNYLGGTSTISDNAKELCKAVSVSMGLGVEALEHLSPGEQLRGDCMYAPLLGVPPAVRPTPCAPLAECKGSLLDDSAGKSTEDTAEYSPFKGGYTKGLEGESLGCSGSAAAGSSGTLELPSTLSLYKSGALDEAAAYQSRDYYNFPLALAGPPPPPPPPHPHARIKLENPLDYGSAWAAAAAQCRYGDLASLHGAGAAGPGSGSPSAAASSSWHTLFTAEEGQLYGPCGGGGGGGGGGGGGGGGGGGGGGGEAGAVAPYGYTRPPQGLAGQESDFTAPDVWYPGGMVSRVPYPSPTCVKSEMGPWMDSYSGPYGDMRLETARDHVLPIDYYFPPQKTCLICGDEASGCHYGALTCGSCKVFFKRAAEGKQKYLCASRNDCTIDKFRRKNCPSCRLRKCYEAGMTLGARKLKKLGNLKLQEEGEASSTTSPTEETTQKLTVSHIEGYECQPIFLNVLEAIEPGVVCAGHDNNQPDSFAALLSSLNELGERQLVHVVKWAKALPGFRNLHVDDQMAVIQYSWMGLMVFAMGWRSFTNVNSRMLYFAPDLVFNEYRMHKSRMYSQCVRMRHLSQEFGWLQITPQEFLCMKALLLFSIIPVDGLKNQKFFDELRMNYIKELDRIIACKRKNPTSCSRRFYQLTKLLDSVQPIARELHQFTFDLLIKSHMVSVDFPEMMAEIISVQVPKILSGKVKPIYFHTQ", "assay_type": "cell-based", "settings": "LAPC4, 3 nM DHT plus 1 μM BIC, 100 nM PP or 100 nM HH", "experimental": "as §1"}}, "note": "Where a name gives a salt, the structure may show the parent alone."}
{"smiles": "Cc1nccc2c1[nH]c1cc(O)ccc12", "note": "[HH, harmol hydrochloride]", "values": [{"measurement": "KLK3 transcription (normalized to RPL19)", "setting": "endogenous AR [1]; No DHT = 1, 3 nM DHT = 1.89", "value": 1.46}, {"measurement": "Nkx3.1 transcription (normalized to RPL19)", "setting": "endogenous AR [1]; No DHT = 1, 3 nM DHT = 2.00", "value": 1.28}, {"measurement": "FKBP51 transcription (normalized to RPL19)", "setting": "endogenous AR [1]; No DHT = 1, 3 nM DHT = 2.15", "value": 1.90}, {"measurement": "TMPRSS2 transcription (normalized to RPL19)", "setting": "endogenous AR [1]; No DHT = 1, 3 nM DHT = 3.70", "value": 1.22}, {"measurement": "MMP16 transcription (normalized to RPL19)", "setting": "endogenous AR [1]; androgen-repressed gene, No DHT = 1, 3 nM DHT = 0.61", "value": 1.02}, {"measurement": "RDC1 transcription (normalized to RPL19)", "setting": "endogenous AR [1]; androgen-repressed gene, No DHT = 1, 3 nM DHT = 0.66", "value": 1.22}, {"measurement": "Nkx3.1 transcription (normalized to RPL19)", "setting": "endogenous AR [2]; No DHT = 1, 3 nM DHT = 1.08", "value": 1.55}, {"measurement": "TMPRSS2 transcription (normalized to RPL19)", "setting": "endogenous AR [2]; No DHT = 1, 3 nM DHT = 1.13", "value": 1.86}, {"measurement": "KLK3 transcription (normalized to RPL19)", "setting": "endogenous AR [2]; No DHT = 1, 3 nM DHT = 1.97", "value": 1.64}, {"measurement": "FKBP51 transcription (normalized to RPL19)", "setting": "endogenous AR [2]; No DHT = 1, 3 nM DHT = 21.4", "value": 11.96}, {"measurement": "RDC1 transcription (normalized to RPL19)", "setting": "endogenous AR [2]; androgen-repressed gene, No DHT = 1, 3 nM DHT = 0.63", "value": 2.88}, {"measurement": "MMP16 transcription (normalized to RPL19)", "setting": "endogenous AR [2]; androgen-repressed gene, No DHT = 1, 3 nM DHT = 0.71", "value": 4.74}]}
